Results: patent US12252486B2, “Solid state forms” (Amgen Inc., priority 2019, dated 2025)

Tests used:
[1] = clinical trials, first dosing cohorts; cited from earlier work
[2] = tested on: KRAS^G12C tumors; settings: immune-competent mice; alone as well as in combination with immune-checkpoint inhibitors; cited from earlier work
[3] = tested on: KRAS^G12C tumors; settings: preclinical analyses, combination; cited from earlier work
[4] = solubility assessment during lead optimization; assay type: physicochemical
Text: Within the pharmaceutical research and development field, the investigation of a suitable solid-state form represents a crucial step. Investigating a solid-state form comprises several decisions, mainly the investigation of an anhydrous, salt or co-crystal form and the investigation of a polymorph of the respective anhydrous, salt or co-crystal. During a lead optimization program, several properties of research compounds are optimized, typically leading to one or a few candidates that continue into exploratory development programs. Typically, in the assessment and optimization of physical chemical parameters during lead optimization, the main focus is on solubility. […] Beyond the optimization of solubility, further physical chemical parameters, such as (1) melting point, (2) thermal behavior, (3) hygroscopicity, (4) crystal habit, (5) polymorphic behavior or physical stability, (6) impurity profile, and (7) chemical stability of the anhydrous or salt form, must be borne in mind when investigating the salt. The melting point of a drug, either as a free base, acid or salt form, should be higher than a certain threshold to allow processing steps such as drying or tableting. The assessment of thermal behavior, which is typically done by thermogravimetry (TGA) and differential scanning calorimetry (DSC), also includes solid-solid phase transitions. […]

SMILES | anti-tumor activity [1] | cures [2] | effect on anti-tumor efficacy of chemotherapy and targeted agents [3] | solubility [4]
C=CC(=O)N1CCN(c2nc(=O)n(-c3c(C)ccnc3C(C)C)c3nc(-c4c(O)cccc4F)c(F)cc23)[C@@H](C)C1 [AMG 510] | demonstrated anti-tumor activity | durable cures | improved the anti-tumor efficacy of chemotherapy and targeted agents | –
C=CC(=O)N1CCN(c2nc(=O)n(-c3c(C)ccnc3C(C)C)c3nc(-c4c(O)cccc4F)c(F)cc23)[C@@H](C)C1 [Compound 1, 6-fluoro-7-(2-fluoro-6-hydroxyphenyl)-1-(4-methyl-2-(2-propanyl)-3-pyridinyl)-4-((2S)-2-methyl-4-(2-propenoyl)-1-piperazinyl)pyrido[2,3-d]pyrimidin-2(1H)-one] | – | – | – | good solubility features
